The values below come from patent publication US11572590B2, “Methods for evaluating tumor cell spheroids using 3D microfluidic cell culture device” (Dana-Farber Cancer Institute, Inc., priority 2017, dated 2023).

Like-named read-outs stand apart in the source and are kept apart here.

What all share (test): SelectScreen Kinase Profiling, single point inhibition and IC50 for off-target kinases
Type in all cases: biochemical

Test [1] deals with off-target kinases (Homo sapiens, UniProt P11309). To be noted: PIM1, ZLYTE, ATP Km app.
off-target kinases (Homo sapiens, UniProt P11309), sequence (P11309 whole entry): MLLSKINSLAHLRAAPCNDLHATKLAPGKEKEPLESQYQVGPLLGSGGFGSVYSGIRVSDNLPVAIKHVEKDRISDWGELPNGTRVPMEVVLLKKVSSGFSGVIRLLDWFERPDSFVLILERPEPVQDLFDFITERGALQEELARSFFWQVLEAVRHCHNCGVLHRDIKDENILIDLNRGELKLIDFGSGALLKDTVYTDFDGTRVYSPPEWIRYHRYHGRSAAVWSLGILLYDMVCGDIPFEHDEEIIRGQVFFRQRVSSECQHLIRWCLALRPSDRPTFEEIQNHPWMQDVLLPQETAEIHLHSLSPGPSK
The target of test [2] is off-target kinases (Homo sapiens, UniProt Q13555). As to conditions: CAMK2G (CaMKII gamma), LanthaScreen Binding. Background: In TR-FRET formats the signal depends on donor and acceptor labels being close together.
off-target kinases (Homo sapiens, UniProt Q13555), sequence (Q13555 whole entry): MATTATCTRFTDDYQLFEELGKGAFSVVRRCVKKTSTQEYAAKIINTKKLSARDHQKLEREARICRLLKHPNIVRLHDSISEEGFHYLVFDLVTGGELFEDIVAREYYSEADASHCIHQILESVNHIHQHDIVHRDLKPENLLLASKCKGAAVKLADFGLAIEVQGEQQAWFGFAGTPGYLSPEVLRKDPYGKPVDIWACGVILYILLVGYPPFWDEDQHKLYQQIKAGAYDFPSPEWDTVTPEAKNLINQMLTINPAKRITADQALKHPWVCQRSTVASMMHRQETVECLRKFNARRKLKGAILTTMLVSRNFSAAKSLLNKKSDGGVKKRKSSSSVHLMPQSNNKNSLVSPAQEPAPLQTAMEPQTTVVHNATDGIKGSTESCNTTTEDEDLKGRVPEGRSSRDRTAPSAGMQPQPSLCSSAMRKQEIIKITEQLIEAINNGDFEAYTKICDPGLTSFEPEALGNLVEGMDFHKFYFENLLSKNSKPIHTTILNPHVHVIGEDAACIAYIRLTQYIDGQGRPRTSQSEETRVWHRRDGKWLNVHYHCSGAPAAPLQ
The target in test [3] is off-target kinases (Homo sapiens, UniProt P10721, Y823D). To be noted: KIT Y823D, LanthaScreen Binding.
off-target kinases (Homo sapiens, UniProt P10721, Y823D), sequence (P10721 26-976 Y823D): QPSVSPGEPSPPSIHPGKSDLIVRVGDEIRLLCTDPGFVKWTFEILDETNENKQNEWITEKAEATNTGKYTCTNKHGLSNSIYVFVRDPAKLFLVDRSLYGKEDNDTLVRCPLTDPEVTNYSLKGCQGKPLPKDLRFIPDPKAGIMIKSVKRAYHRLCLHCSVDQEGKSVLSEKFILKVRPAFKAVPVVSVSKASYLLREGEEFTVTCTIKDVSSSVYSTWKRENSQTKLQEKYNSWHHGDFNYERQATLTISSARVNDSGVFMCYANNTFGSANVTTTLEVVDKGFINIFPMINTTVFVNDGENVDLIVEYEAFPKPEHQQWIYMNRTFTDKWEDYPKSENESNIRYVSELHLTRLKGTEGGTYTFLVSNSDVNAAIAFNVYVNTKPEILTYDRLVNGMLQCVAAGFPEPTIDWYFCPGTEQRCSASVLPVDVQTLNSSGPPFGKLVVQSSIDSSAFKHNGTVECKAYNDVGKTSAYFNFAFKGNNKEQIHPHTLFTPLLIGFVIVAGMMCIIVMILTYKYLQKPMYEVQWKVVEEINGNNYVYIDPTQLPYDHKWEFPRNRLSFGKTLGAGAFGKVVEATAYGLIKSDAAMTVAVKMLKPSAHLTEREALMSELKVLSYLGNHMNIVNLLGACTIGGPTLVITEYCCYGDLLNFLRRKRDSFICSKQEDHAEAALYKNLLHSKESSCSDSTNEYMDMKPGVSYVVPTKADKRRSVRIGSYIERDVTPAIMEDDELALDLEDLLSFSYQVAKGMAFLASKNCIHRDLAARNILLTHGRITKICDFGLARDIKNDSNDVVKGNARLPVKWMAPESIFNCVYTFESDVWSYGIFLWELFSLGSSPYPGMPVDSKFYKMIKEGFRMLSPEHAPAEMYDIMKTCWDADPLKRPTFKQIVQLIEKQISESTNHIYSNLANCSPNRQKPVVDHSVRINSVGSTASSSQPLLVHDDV
Test [4] addresses T1, off-target kinases (Homo sapiens, UniProt Q16832).
T1 sequence (Q16832 22-855): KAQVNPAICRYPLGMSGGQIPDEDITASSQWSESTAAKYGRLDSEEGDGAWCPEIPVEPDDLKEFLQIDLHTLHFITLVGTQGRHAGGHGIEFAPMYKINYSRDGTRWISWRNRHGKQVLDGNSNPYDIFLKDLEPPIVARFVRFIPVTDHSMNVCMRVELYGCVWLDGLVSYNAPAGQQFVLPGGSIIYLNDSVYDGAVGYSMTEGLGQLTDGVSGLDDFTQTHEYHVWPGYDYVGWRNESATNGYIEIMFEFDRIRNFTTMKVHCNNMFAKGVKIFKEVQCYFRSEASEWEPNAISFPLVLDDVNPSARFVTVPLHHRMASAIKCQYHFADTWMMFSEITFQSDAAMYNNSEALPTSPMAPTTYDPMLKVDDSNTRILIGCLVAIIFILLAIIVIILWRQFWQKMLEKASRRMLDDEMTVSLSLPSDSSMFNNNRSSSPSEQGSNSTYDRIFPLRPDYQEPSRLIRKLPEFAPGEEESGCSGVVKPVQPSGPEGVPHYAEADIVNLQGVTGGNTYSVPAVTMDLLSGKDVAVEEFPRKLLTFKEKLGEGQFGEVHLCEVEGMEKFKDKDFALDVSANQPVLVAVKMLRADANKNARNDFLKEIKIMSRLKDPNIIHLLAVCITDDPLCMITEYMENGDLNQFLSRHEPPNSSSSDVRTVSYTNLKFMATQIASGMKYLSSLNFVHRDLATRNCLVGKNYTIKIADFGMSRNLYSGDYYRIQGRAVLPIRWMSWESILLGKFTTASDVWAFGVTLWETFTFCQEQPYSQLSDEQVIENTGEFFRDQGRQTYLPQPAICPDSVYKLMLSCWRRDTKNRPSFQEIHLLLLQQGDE
To be noted: DDR2, LanthaScreen Binding.

Test [5] deals with off-target kinases (Homo sapiens, UniProt P28482). To be noted: MAPK1 (ERK2), ZLYTE, ATP Km app.
off-target kinases (Homo sapiens, UniProt P28482), sequence (P28482 whole entry): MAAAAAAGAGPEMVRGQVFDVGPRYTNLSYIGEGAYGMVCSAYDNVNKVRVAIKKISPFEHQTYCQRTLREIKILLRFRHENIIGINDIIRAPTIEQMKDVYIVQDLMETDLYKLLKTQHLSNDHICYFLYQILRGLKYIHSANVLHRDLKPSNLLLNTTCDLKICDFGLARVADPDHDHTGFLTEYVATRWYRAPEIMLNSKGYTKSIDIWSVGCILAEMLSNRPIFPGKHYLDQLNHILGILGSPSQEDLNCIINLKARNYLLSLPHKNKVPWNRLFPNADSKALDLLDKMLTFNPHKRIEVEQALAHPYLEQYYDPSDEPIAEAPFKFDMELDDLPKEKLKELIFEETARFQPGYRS
Test [6] has as its target off-target kinases (Homo sapiens, UniProt P10721, D816H). To be noted: KIT D816H, LanthaScreen Binding.
The target in test [7] is off-target kinases (Homo sapiens, UniProt Q02750). To be noted: MAP2K1 (MEK1).
off-target kinases (Homo sapiens, UniProt Q02750), sequence (Q02750 whole entry): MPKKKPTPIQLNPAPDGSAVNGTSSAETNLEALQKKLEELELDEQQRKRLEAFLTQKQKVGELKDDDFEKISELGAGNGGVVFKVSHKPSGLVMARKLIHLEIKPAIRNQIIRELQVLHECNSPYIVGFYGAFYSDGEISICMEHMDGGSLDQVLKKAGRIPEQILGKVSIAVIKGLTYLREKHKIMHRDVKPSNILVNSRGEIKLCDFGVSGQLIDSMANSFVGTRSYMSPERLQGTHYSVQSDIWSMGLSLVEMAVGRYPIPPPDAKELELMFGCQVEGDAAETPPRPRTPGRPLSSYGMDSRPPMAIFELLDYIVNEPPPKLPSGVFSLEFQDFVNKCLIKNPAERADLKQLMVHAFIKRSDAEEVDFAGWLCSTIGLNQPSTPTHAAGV

off-target kinases (Homo sapiens, UniProt P10721, D816H), sequence (P10721 26-976 D816H): as the sequence (P10721 26-976 Y823D) above, with D791H, D798Y counted along it

With `N#Cc1cc(-c2ncnc(Nc3ccc(N4CCN(C5COC5)CC4)cc3)n2)ccc1OC1CCOCC1` [Compound 1, 5-(4-((4-(4-(oxetan-3-yl)piperazin-1-yl)phenyl)amino)-1,3,5-triazin-2-yl)-2-((tetrahydro-2H-pyran-4-yl)oxy)benzonitrile], the inhibition on off-target kinases [1] (read-out: % Inhibition 1) was determined as 11%; at off-target kinases [1] (read-out: % Inhibition 2), 3%; on off-target kinases [1] (read-out: % Inhibition Avg), 7%; at off-target kinases [2] (read-out: % Inhibition 1), 18%; on off-target kinases [2] (read-out: % Inhibition 2), 19%; on off-target kinases [2] (read-out: % Inhibition Avg), 18%. Further, the inhibition at off-target kinases [3] (read-out: % Inhibition 1) was determined as 47%; on off-target kinases [3] (read-out: % Inhibition 2), 59%; on off-target kinases [3] (read-out: % Inhibition Avg), 53%; at off-target kinases [4] (read-out: % Inhibition 1) it was 0%; at off-target kinases [4] (read-out: % Inhibition 2), 1%; on off-target kinases [4] (read-out: % Inhibition Avg), 0%. For the same compound, the inhibition was 6% at off-target kinases [5] (read-out: % Inhibition 1); 6% at off-target kinases [5] (read-out: % Inhibition 2); 6% at off-target kinases [5] (read-out: % Inhibition Avg); 90% at off-target kinases [6] (read-out: % Inhibition 1); 94% at off-target kinases [6] (read-out: % Inhibition 2); 92% on off-target kinases [6] (read-out: % Inhibition Avg). Further, the inhibition at off-target kinases [7] (LanthaScreen Binding, read-out: % Inhibition 1) was 6%; at off-target kinases [7] (LanthaScreen Binding, read-out: % Inhibition 2), 5%; on off-target kinases [7] (LanthaScreen Binding, read-out: % Inhibition Avg), 5%; at off-target kinases [7] (ZLYTE, ATP 100, read-out: % Inhibition 1), 7%; at off-target kinases [7] (ZLYTE, ATP 100, read-out: % Inhibition 2), 3%; on off-target kinases [7] (ZLYTE, ATP 100, read-out: % Inhibition Avg) it was 5%.

As a reminder, the inhibition is the share of the control response that was lost under treatment.
